Measurements as given in patent publication US20140200175A1, “SUPPRESSION OF TOXIN PRODUCTION OF C[…]” (University of Central Florida Research Foundation, Inc., priority 2012, published 2014).
Entries after “also recorded” stand apart in the source; their conditions may differ.

Experiments:
C. difficile = details: added to the culture medium, concentration-dependent, reference (32); cited from earlier work
C. difficile (VPI10463) [1] = test: Growth curve of C. difficile in rich medium (TYGSe), optical density at 600 nm; assay type: cell-based, Clostridium difficile; details: VPI10463, rich medium plus 16.7 mM amino acid, 72 hour growth period
[2] = system: C. difficile (VPI10463) toxin A and toxin B; test: Extracellular toxin in cell free supernatants by SDS-PAGE with GelCode Blue staining; assay type: cell-based, Clostridium difficile; details: 16.7 mM; for toxin levels in media supernatants (band larger than 225 kDa): 72 hour growth period, 7.5% gel, versus control
Procedure: FIG. 2 illustrates that toxin production occurs earlier and is increased with the addition of L-proline or glycine to the culture media of C. difficile, but is diminished with L-hydroxyproline. C. difficile (VPI10463) culture media was collected by centrifugation at the indicated time points. Cell free supernatants were filtered (0.2 μm filter) and equal volumes (50 μL) were separated by SDS-PAGE and stained overnight with GelCode Blue. Gel migration was compared with that of purified toxin A (List Biologicals).
For analysis of extracellular toxins, 50 μL aliquots of cell free supernatant from each C. difficile culture across a 72 hour growth study was analyzed by sodium dodecyl sulfate-polyacrylamide gel electrophoresis (SDS-PAGE) (7.5% polyacrylamide). The separated proteins were visualized after staining overnight with GelCode Blue (Thermo Scientific, Waltham, Mass.).

tcdA = details: 16.7 mM, mRNA harvested after 72 hours of growth
tcdB = details: 16.7 mM, mRNA harvested after 72 hours of growth
C. difficile (VPI10463) [3] = details: stationary phase (24 to 72 hours), 16.7 mM; versus control and the other amino acids
Procedure: Optical density (FIG. 1A) was followed for 72 hours after inoculation. Total protein (FIG. 1B) and extracellular protein (FIG. 1C) were quantified in cell free supernatants according to the method described by Bradford (46).
Optical density measurements of cultures at 600 nm were determined using a Molecular Devices SpectraMax 190 96-well plate reader at the times indicated for each experiment. Cultures were centrifuged at 16,100×g for five minutes. The resulting cell free supernatants were filtered (0.2 μm) and assayed for protein as described by Bradford (46) using bovine serum albumin (Thermo Scientific, Rockford, Ill.) as a standard.

C. difficile spore = details: alongside taurocholate, reference (45); cited from earlier work

Row | Structure (SMILES) | intracellular toxin levels (C. difficile) | growth (in words) (C. difficile (VPI10463) [1]) | toxin levels in media supernatants (band larger than 225 kDa) [2] | reduction in tcdA transcription (tcdA; relative to control cells) | reduction in tcdB transcription (tcdB; relative to control cells) | tcdA transcript relative to control cells (tcdA) | tcdB transcript relative to control cells (tcdB) | toxin produced earlier ([2]; onset of toxin band) | extracellular protein levels (C. difficile (VPI10463) [3]) | spore germination (C. difficile spore)
1 | N[C@@H](CS)C(=O)O [L-cysteine] | significantly reduced |  |  |  |  |  |  |  |  | 
2 | O=C(O)[C@@H]1CC(O)CN1 (stereo partly drawn) [L-hydroxyproline, L-4-hydroxyproline] |  | largest increase in growth; also recorded: comparable growth | no band corresponding to toxin was visible | ≥ 75% | ≥ 75% |  |  |  |  | 
3 | O=C(O)[C@@H]1CCCN1 [L-proline] | significantly reduced |  | higher toxin levels than the control |  |  | approximately three | approximately three |  |  | 
4 | NCC(=O)O [glycine] |  |  | higher toxin levels than the control |  |  | nine | nine | approximately 24 hours | significantly higher | potent spore co-germinant
